Source: patent US20230265151A1, “GIP/GLP1 CO-AGONIST COMPOUNDS” (priority 2020, published 2023)
Like-named read-outs stand apart in the source and are kept apart here. *1 amine or outer side, *2 acyl side, *3 side chain or, on linkers, in order; H or OH if unused. Where a SMILES comes first, the peptide text is derived from it. Side-chain parts run from the residue outwards. [ ]: non-standard residue; d: D form. The star is where a group is joined. αMePhe(2-F) = C[C@](N)(Cc1ccccc1F)C(=O)O; γGlu = O=C(O)[C@H](CCC(=O)[*:2])N[*:1]; C14 diacid = O=C(O)CCCCCCCCCCCCC(=O)*; αMeF = C[C@](N)(Cc1ccccc1)C(=O)O; 4Pal = N[C@@H](Cc1ccncc1)C(=O)O; αMeL = CC(C)C[C@](C)(N)C(=O)O; Orn = NCCC[C@H](N)C(=O)O; AEEA = NCCOCCOCC(=O)O; Aib = CC(C)(N)C(=O)O

Experiments:
Format in all cases: cell-based
hGIPR = target: T1, hGIPR (Homo sapiens, UniProt P48546); experiment: Functional cAMP formation (HTRF) in HEK-293 clonal cells expressing hGIPR, 0.1% bovine casein, without or with 1.0% human serum albumin; conditions: for Emax: 37° C.; for EC50: cAMP, incubated at 37° C., 0.1% bovine casein (no human serum albumin), geometric mean
T1 construct: expressed in transfected cells
T1 sequence (P48546 22-466): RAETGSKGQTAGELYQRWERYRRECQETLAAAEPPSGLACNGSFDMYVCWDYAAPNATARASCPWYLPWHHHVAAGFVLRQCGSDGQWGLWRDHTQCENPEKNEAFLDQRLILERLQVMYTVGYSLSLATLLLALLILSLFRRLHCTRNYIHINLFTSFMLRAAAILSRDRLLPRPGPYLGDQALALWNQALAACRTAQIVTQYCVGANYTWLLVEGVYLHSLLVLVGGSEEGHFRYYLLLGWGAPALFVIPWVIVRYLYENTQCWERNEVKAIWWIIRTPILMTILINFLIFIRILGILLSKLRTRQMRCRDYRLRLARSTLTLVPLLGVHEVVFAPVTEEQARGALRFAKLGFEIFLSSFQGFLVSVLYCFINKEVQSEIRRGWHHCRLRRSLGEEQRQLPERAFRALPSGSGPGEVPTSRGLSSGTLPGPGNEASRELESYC
Method in brief: (§1)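 Cells were stimulated with peptide for 30 min at 37° C, then lysed in buffer carrying cAMP-d2 and anti-cAMP Eu3+-cryptate for a competitive HTRF read after at least 60 min at room temperature. The 665/620 nm ratio was converted to nM cAMP against a standard curve.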

hGCGR = target: T2, hGCGR (Homo sapiens, UniProt P47871); experiment: Functional cAMP formation (HTRF) in HEK-293 clonal cells expressing hGCGR, 0.1% bovine casein, without or with 1.0% human serum albumin; conditions: geometric mean
T2 construct: expressed in transfected cells
T2 sequence (P47871 26-477): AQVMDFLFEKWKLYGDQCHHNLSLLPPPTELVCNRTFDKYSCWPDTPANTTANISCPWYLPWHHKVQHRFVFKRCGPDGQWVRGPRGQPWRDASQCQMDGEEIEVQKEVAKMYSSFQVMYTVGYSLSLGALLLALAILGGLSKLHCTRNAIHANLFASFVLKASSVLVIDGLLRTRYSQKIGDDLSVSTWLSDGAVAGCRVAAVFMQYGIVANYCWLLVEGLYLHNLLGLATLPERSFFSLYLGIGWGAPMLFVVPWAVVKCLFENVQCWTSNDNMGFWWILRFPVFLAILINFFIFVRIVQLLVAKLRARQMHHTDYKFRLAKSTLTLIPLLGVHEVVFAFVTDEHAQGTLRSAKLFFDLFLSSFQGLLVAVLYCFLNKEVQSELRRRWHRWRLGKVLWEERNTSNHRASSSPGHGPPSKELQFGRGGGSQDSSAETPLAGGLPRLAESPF
Method in brief: as §1

hGLP-1R = hGLP-1R (Homo sapiens, UniProt P43220); experiment: Functional cAMP formation (HTRF) in HEK-293 clonal cells expressing hGLP-1R, 0.1% bovine casein, without or with 1.0% human serum albumin; parameters: expressed in transfected cells; conditions: for EC50: geometric mean
Sequence of hGLP-1R (P43220 24-463): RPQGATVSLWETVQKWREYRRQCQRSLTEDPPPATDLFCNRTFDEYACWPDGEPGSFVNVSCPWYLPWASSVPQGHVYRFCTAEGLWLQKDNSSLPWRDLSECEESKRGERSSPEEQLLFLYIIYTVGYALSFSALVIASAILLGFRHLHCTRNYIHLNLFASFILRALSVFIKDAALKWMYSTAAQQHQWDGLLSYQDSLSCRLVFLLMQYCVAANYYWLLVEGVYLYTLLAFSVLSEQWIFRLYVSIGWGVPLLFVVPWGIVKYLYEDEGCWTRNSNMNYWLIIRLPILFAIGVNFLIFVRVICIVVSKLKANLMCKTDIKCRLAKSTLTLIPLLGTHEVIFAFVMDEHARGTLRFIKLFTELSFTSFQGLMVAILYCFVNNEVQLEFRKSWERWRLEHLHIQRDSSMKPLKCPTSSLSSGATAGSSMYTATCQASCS
Method in brief: as §1

[1] = HEK293, percent of maximal response to GIP(1-42)NH2, 0.1% bovine casein, arithmetic mean, read-out: hGIPR Emax, % ± SEM
[2] = read-out: hGIPR EC50, nM (SEM, n)
[3] = cAMP, incubated at 37° C., 0.1% bovine casein (no human serum albumin), read-out: hGCGR EC50, nM (SEM, n)
[4] = HEK293, percent of maximal response to GLP-1(7-36)NH2, 37° C., 0.1% bovine casein, arithmetic mean, read-out: hGLP-1R Emax, % ± SEM
[5] = hGCGR EC50, nM (SEM, n), cAMP, incubated at 37° C., 0.1% bovine casein (no human serum albumin)

SMILES | Emax (hGIPR; [1]) | EC50 (hGIPR; [2]) | EC50 (hGCGR; [3]) | Emax (hGLP-1R; [4]) | EC50 (hGIPR; hGIPR EC50, nM (SEM, n)) | EC50 (hGCGR; [5]) | further results
CC[C@H](C)[C@H](NC(=O)[C@H](CC(C)C)NC(=O)[C@](C)(Cc1ccccc1)NC(=O)[C@H](CCC(=O)O)NC(=O)[C@@H](NC(=O)[C@H](Cc1ccccc1)NC(=O)[C@H](CCC(=O)O)NC(=O)C(C)(C)NC(=O)[C@H](CCC(N)=O)NC(=O)[C@H](C)NC(=O)[C@H](CCCCNC(=O)COCCOCCNC(=O)COCCOCCNC(=O)CC[C@H](NC(=O)CCCCCCCCCCCCC(=O)O)C(=O)O)NC(=O)[C@H](CCCN)NC(=O)[C@H](CC(=O)O)NC(=O)[C@H](CC(C)C)NC(=O)[C@](C)(CC(C)C)NC(=O)[C@@H](NC(=O)[C@H](CO)NC(=O)[C@H](Cc1ccncc1)NC(=O)[C@H](CC(=O)O)NC(=O)[C@H](CO)NC(=O)[C@@H](NC(=O)[C@](C)(Cc1ccccc1F)NC(=O)[C@@H](NC(=O)CNC(=O)[C@H](CCC(=O)O)NC(=O)C(C)(C)NC(=O)[C@@H](N)Cc1ccc(O)cc1)[C@@H](C)O)[C@@H](C)O)[C@@H](C)CC)[C@@H](C)CC)C(=O)N[C@@H](CCC(=O)O)C(=O)NCC(=O)NCC(=O)N[C@@H](CCCCNC(=O)COCCOCCNC(=O)COCCOCCNC(=O)CC[C@H](NC(=O)CCCCCCCCCCCCC(=O)O)C(=O)O)C(=O)N[C@@H](CO)C(=O)N[C@@H](CO)C(=O)NCC(=O)N[C@@H](C)C(=O)N1CCC[C@H]1C(=O)N1CCC[C@H]1C(=O)N1CCC[C@H]1C(=O)N[C@@H](CO)C(N)=O [Example 159] (H-Y[Aib]EGT[αMePhe(2-F)]TSD[4Pal]SI[αMeL]LD[Orn]K([AEEA-AEEA-γGlu-C14 diacid])AQ[Aib]EFIE[αMeF]LIEGGK([AEEA-AEEA-γGlu-C14 diacid])SSGAPPPS-NH2) | 95.3% | 0.0198 nM | > 9950 nM | 89.4% |  |  | 
CC[C@H](C)[C@H](NC(=O)[C@H](CC(C)C)NC(=O)[C@](C)(Cc1ccc(O)cc1)NC(=O)[C@H](CCCCNC(=O)COCCOCCNC(=O)COCCOCCNC(=O)[C@@H](N)CCCCNC(=O)CCCCCCCCCCCCC(=O)O)NC(=O)[C@@H](NC(=O)[C@H](Cc1ccccc1)NC(=O)[C@H](CCC(=O)O)NC(=O)C(C)(C)NC(=O)[C@H](CCC(N)=O)NC(=O)[C@H](C)NC(=O)[C@H](CCCCNC(=O)COCCOCCNC(=O)COCCOCCNC(=O)[C@@H](N)CCCCNC(=O)CCCCCCCCCCCCC(=O)O)NC(=O)[C@H](CCCN)NC(=O)[C@H](CC(=O)O)NC(=O)[C@H](CC(C)C)NC(=O)[C@](C)(CC(C)C)NC(=O)[C@@H](NC(=O)[C@H](CO)NC(=O)[C@H](Cc1ccncc1)NC(=O)[C@H](CC(=O)O)NC(=O)[C@H](CO)NC(=O)[C@@H](NC(=O)[C@](C)(Cc1ccccc1F)NC(=O)[C@@H](NC(=O)CNC(=O)[C@H](CCC(=O)O)NC(=O)C(C)(C)NC(=O)[C@@H](N)Cc1ccc(O)cc1)[C@@H](C)O)[C@@H](C)O)[C@@H](C)CC)[C@@H](C)CC)C(=O)N[C@@H](CCC(=O)O)C(=O)NCC(=O)NCC(=O)N1CCC[C@H]1C(=O)N[C@@H](CO)C(=O)N[C@@H](CO)C(=O)NCC(=O)N[C@@H](C)C(=O)N1CCC[C@H]1C(=O)N1CCC[C@H]1C(=O)N1CCC[C@H]1C(=O)N[C@@H](CO)C(N)=O [Example 160] |  |  |  |  | 0.0197 nM | > 9950 nM | Emax (hGLP-1R; HEK293, read-out: hGLP-1R Emax, % ± SEM, percent of maximal response to GLP-1(7-36)NH2, 37° C., 0.1% bovine casein, arithmetic mean): 93.6%
CC[C@H](C)[C@H](NC(=O)[C@H](CC(C)C)NC(=O)C(C)(Cc1ccc(O)cc1)NC(=O)[C@H](CCCCNC(=O)[C@@H](N)CCCCNC(=O)CC[C@H](NC(=O)CCCCCCCCCCCCC(=O)O)C(=O)O)NC(=O)[C@@H](NC(=O)[C@H](Cc1ccccc1)NC(=O)[C@H](CCC(=O)O)NC(=O)C(C)(C)NC(=O)[C@H](CCC(N)=O)NC(=O)[C@H](C)NC(=O)[C@H](CCCCNC(=O)[C@@H](N)CCCCNC(=O)CC[C@H](NC(=O)CCCCCCCCCCCCC(=O)O)C(=O)O)NC(=O)[C@H](CCCN)NC(=O)[C@H](CC(=O)O)NC(=O)[C@H](CC(C)C)NC(=O)C(C)(CC(C)C)NC(=O)[C@@H](NC(=O)[C@H](CO)NC(=O)[C@H](Cc1ccncc1)NC(=O)[C@H](CC(=O)O)NC(=O)[C@H](CO)NC(=O)[C@@H](NC(=O)C(C)(Cc1ccccc1F)NC(=O)[C@@H](NC(=O)CNC(=O)[C@H](CCC(=O)O)NC(=O)C(C)(C)NC(=O)[C@@H](N)Cc1ccc(O)cc1)[C@@H](C)O)[C@@H](C)O)[C@@H](C)CC)[C@@H](C)CC)C(=O)N[C@@H](CCC(=O)O)C(=O)NCC(=O)NCC(=O)N1CCC[C@H]1C(=O)N[C@@H](CO)C(=O)N[C@@H](CO)C(=O)NCC(=O)N[C@@H](C)C(=O)N1CCC[C@H]1C(=O)N1CCC[C@H]1C(=O)N1CCC[C@H]1C(=O)N[C@@H](CO)C(N)=O (stereo partly drawn) [Example 161] |  |  |  |  | 0.0207 nM | > 9950 nM | Emax (hGIPR; HEK293, read-out: hGIPR Emax, % ± SEM, percent of maximal response to GIP(1-42)NH2, 0.1% bovine casein, arithmetic mean): 94.6 ± 1.21%; EC50 (hGLP-1R; hGLP-1R EC50, nM (SEM, n), cAMP, incubated at 37° C., 0.1% bovine casein (no human serum albumin)): 0.203 nM
CC[C@H](C)[C@H](NC(=O)[C@H](CC(C)C)NC(=O)[C@](C)(Cc1ccc(O)cc1)NC(=O)[C@@H](CCC(=O)O)NC(=O)[C@@H](NC(=O)[C@H](Cc1ccccc1)NC(=O)[C@H](CCC(=O)O)NC(=O)C(C)(C)NC(=O)[C@H](CCC(N)=O)NC(=O)[C@H](C)NC(=O)[C@H](CCCCNC(=O)COCCOCCNC(=O)COCCOCCNC(=O)[C@@H](N)CCCCNC(=O)CCCCCCCCCCCCC(=O)O)NC(=O)[C@H](CCCN)NC(=O)[C@H](CC(=O)O)NC(=O)[C@H](CC(C)C)NC(=O)[C@](C)(CC(C)C)NC(=O)[C@@H](NC(=O)C(C)(C)NC(=O)[C@@H](NC(=O)[C@H](CC(=O)O)NC(=O)[C@H](CO)NC(=O)[C@@H](NC(=O)[C@](C)(Cc1ccccc1F)NC(=O)[C@@H](NC(=O)CNC(=O)[C@H](CCC(=O)O)NC(=O)C(C)(C)NC(=O)[C@@H](N)Cc1ccc(O)cc1)[C@@H](C)O)[C@@H](C)O)C(C)C)[C@@H](C)CC)[C@@H](C)CC)C(=O)N[C@@H](CCC(=O)O)C(=O)NCC(=O)NCC(=O)N[C@@H](CCCCNC(=O)COCCOCCNC(=O)COCCOCCNC(=O)[C@@H](N)CCCCNC(=O)CCCCCCCCCCCCC(=O)O)C(=O)N[C@@H](CO)C(=O)N[C@@H](CO)C(=O)NCC(=O)N[C@@H](C)C(=O)N1CCC[C@H]1C(=O)N1CCC[C@H]1C(=O)N1CCC[C@H]1C(=O)N[C@@H](CO)C(N)=O [Example 163] | 98.2% | 0.0427 nM | > 9950 nM | 86.3% |  |  | EC50 (hGLP-1R; cAMP, incubated at 37° C., 0.1% bovine casein (no human serum albumin), read-out: hGLP-1R EC50, nM (SEM, n)): 0.199 nM
CC[C@H](C)[C@H](NC(=O)[C@H](CC(C)C)NC(=O)[C@](C)(Cc1ccc(O)cc1)NC(=O)[C@@H](CCC(=O)O)NC(=O)[C@@H](NC(=O)[C@H](Cc1ccccc1)NC(=O)[C@H](CCC(=O)O)NC(=O)C(C)(C)NC(=O)[C@H](CCC(N)=O)NC(=O)[C@H](C)NC(=O)[C@H](CCCCNC(=O)[C@@H](N)CCCCNC(=O)CC[C@H](NC(=O)CCCCCCCCCCCCC(=O)O)C(=O)O)NC(=O)[C@H](CCCN)NC(=O)[C@H](CC(=O)O)NC(=O)[C@H](CC(C)C)NC(=O)[C@](C)(CC(C)C)NC(=O)[C@@H](NC(=O)C(C)(C)NC(=O)[C@@H](NC(=O)[C@H](CC(=O)O)NC(=O)[C@H](CO)NC(=O)[C@@H](NC(=O)[C@](C)(Cc1ccccc1F)NC(=O)[C@@H](NC(=O)CNC(=O)[C@H](CCC(=O)O)NC(=O)C(C)(C)NC(=O)[C@@H](N)Cc1ccc(O)cc1)[C@@H](C)O)[C@@H](C)O)C(C)C)[C@@H](C)CC)[C@@H](C)CC)C(=O)N[C@@H](CCC(=O)O)C(=O)NCC(=O)NCC(=O)N[C@@H](CCCCNC(=O)[C@@H](N)CCCCNC(=O)CC[C@H](NC(=O)CCCCCCCCCCCCC(=O)O)C(=O)O)C(=O)N[C@@H](CO)C(=O)N[C@@H](CO)C(=O)NCC(=O)N[C@@H](C)C(=O)N1CCC[C@H]1C(=O)N1CCC[C@H]1C(=O)N1CCC[C@H]1C(=O)N[C@@H](CO)C(N)=O [Example 164] | 95.8 ± 5.48% | 0.0464 nM | > 9950 nM | 93.8 ± 0.298% |  |  | Emax (hGIPR; HEK293, 0.1% bovine casein and 1.0% human serum albumin, percent of maximal response to GIP(1-42)NH2, read-out: hGIPR Emax, % ± SEM): 93%; EC50 (hGCGR; 0.1% bovine casein and 1.0% human serum albumin, 37° C., read-out: hGCGR EC50, nM (SEM, n)): > 9950 nM; EC50 (hGLP-1R; 0.1% bovine casein and 1.0% human serum albumin, 37° C., read-out: hGLP-1R EC50, nM (SEM, n)): 26.6 nM; Emax (hGLP-1R; HEK293, 0.1% bovine casein and 1.0% human serum albumin, 37° C., percent of maximal response to GLP-1(7-36)NH2, read-out: hGLP-1R Emax, % ± SEM): 95.4%
